Target: T1, acetylcholine muscarinic M1 receptor (Homo sapiens, UniProt P11229)
T1 construct: expressed in transfected cells; host or cells: CHOnfat cells (CHO; also called CHOK1/hM1)
T1 sequence (P11229 1-460): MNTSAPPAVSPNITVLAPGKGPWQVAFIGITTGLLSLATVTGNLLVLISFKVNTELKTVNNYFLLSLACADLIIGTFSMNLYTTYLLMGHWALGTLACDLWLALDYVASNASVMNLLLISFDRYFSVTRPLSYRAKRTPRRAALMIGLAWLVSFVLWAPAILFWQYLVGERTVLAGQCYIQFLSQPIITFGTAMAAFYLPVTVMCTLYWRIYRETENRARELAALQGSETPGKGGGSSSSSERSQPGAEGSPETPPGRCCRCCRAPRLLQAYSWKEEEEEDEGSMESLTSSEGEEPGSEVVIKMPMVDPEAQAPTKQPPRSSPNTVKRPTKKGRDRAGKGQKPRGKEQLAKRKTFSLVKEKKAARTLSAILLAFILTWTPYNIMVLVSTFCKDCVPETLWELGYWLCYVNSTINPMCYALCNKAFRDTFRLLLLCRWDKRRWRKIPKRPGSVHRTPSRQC
Assay: muscarinic FLIPR assay: potentiation of acetylcholine (EC20)-stimulated intracellular Ca2+ in CHOnfat/hM1 cells
Type: cell-based
Conditions: 4 min preincubation, then EC20 acetylcholine (3 nM final), positive allosteric modulator activity, read-out: IP Value (inflection point)
Description: The assay studies the effect of one or several concentrations of test compounds on basal or acetylcholine-stimulated Ca^2+ levels using FLIPR.
Compounds are prepared and subjected to a preincubation period of 4 min. Thereafter, a single EC20 concentration of acetylcholine is added to each well (3 nM final). The intracellular Ca^2+ level of each sample is measured and compared to an acetylcholine control to determine any modulatory activity.
Cells: CHOnfat/hM1, hM2, hM3 or hM4 cells are plated 24 hr before the assay at a density of 18,000 cells/well (100 μL) in a 384 well plate. CHOnfat/hM1 and CHOnfat/hM3 Growth Medium: 90% DMEM (Hi Glucose); 10% HI FBS; 2 mM L-glutamine; 0.1 mM NEAA; Pen-Strep; and 1 mg/ml Geneticin, are added. For M2Gqi5CHOnfat and M4Gqi5CHOnfat cells, an additional 600 ug/ml hygromycin is added.
Equipment: 384 well plate, 120 μL addition plate; 96-well Whatman 2 ml Uniplate Incubator, 37° C., 5% CO2; Skatron EMBLA-384 Plate Washer; Multimek Pipetting System; Genesis Freedom 200 System; Mosquito System; Temo Nanoliter Pipetting System; and FLIPR^384 Fluorometric Imaging Plate Reader System are used.
Buffers. Assay Buffer: Hanks Balanced Salt Solution, with 20 mM Hepes, 2.5 mM Probenecid (Sigma P-8761) first dissolved in 1 N NaOH, 1% Bovine Serum Albumin (Sigma A-9647). Dye Loading Buffer: Assay Buffer plus 1% Fetal Bovine Serum and Fluo-4AM/Pluronic Acid Mixture. 2 mM Fluo-4AM ester stock in DMSO (Molecular Probes F-14202) Concentration of 2 μM in buffer for a final concentration of 1 μM in Assay. 20% Pluronic Acid Solution stock, with concentration of 0.04% in Buffer, 0.02% in Assay.
65 μL of 2 mM Fluo-4AM are mixed with 130 μL of 20% Pluronic Acid. The resulting solution and 650 μL FBS is added to the assay buffer for a total volume of 65 mL. Positive Controls: 4-Br-A23187: 10 mM in DMSO; final concentration 10 μM. Acetylcholine: 10 mM in water, working stock at both 20 μM and 30 μM in assay buffer, final concentration of 10 μM. This is used to check the maximum stimulation of the CHOK1/hM1 cells. 20 μM (2×) acetylcholine is added in the preincubation part of the assay, and the 30 μM (3×) stock is added in the second part. (EC20)Acetylcholine: 10 mM in water, working stock of 9 nM (3×), and final concentration in assay is 3 nM. This is used after the preincubation with test compounds. Addition of the EC20 Acetylcholine to each well with a test compound will ascertain any modulator activity. 24 wells contain 3 nM Acetylcholine alone as a control.
Screening Plate Compounds are titrated in 96-well plates (columns 2-11), 100% DMSO, started at a concentration of 15 mM (150× stock concentration), and 3-fold serial dilutions using Genesis Freedom200 System. Four 96-well plates are combined into a 384-well plate using Mosquito Nanoliter Pipetting System by transferring 1 μl of serial diluted compounds to each well, and 1 mM acetylcholine (100× stock concentration) were added as a control. Using Temo, 49 μl assay buffer is added to each well of the 384-well plate right before assay.
In a 96-well Whatman 2 ml Uniplate, 9 nM Acetylcholine (3×) is pipetted into wells corresponding to the screening compounds, and into control wells. The 30 μM acetylcholine control (3×) is added into control wells, and the 3× agonist plate is transferred into a 384 well plate.
Cells are washed three times with 100 μL of buffer, leaving 30 μL of buffer in each well. Using Multimek, 30 μL of Dye Loading Buffer is added into each well and incubated at 37° C., 5% CO2 for up to one hr.
After 60 min, the cells are washed three times with 100 μL of buffer, leaving 30 μL […] of buffer in each well. The cell plate, screening plate, and agonist addition plates are placed on the platform in the FLIPR and the door closed. A signal test to check background fluorescence and basal fluorescence signal is performed. Laser intensity is adjusted if necessary. […]

Compound	EC50 [nM]
O=c1c2cc(CN3CCN(c4ccsc4)CC3)c3ccccc3c2ncn1[C@H]1CCCC[C@@H]1O [Example 6, 3-[(1S,2S)-2-Hydroxycyclohexyl]-6-{[4-(3-thienyl)piperazin-1-yl]methyl}benzo[h]quinazolin-4(3H)-one]	387
N#CC1(c2ccccn2)CC[N+]([O-])(Cc2cc3c(=O)n([C@H]4CCCC[C@@H]4O)cnc3c3ccccc23)CC1 (stereo partly drawn) [Example 4, 1-({3-[(1S,2S)-2-Hydroxycyclohexyl]-4-oxo-3,4-dihydrobenzo[h]quinazolin-6-yl}methyl)-4-pyridin-2-ylpiperidine-4-carbonitrile 1-oxide]	3880
CC1(C#N)CCN(Cc2cc3c(=O)n([C@H]4CCCC[C@@H]4O)cnc3c3ccccc23)CC1 [Example 8, 1-({3-[(1S,2S)-2-Hydroxycyclohexyl]-4-oxo-3,4-dihydrobenzo[h]quinazolin-6-yl}methyl)-4-methylpiperidine-4-carbonitrile]	339
N#CC1(c2ccccn2)CCN(Cc2cc3c(=O)n([C@H]4CCCC[C@@H]4O)cnc3c3ccccc23)CC1 (racemic) [Example 1, rac-1-({3-[(1R,2R)-2-Hydroxycyclohexyl]-4-oxo-3,4-dihydrobenzo[h]quinazolin-6-yl}methyl)-4-pyridin-2-ylpiperidine-4-carbonitrile]	45
Cn1cc(N2CCN(Cc3cc4c(=O)n([C@H]5CCCC[C@@H]5O)cnc4c4ccccc34)CC2=O)cn1 (racemic) [Example 7, rac-3[(1R,2R)-2-Hydroxycyclohexyl]-6-{[4-(1-methyl-1H-pyrazol-4-yl)-3-oxopiperazin-1-yl]methyl}benzo[h]quinazolin-4(3H)-one]	44
N#CC1(c2ccccn2)CCN(Cc2cc3c(=O)n([C@H]4CCCC[C@@H]4O)cnc3c3ccccc23)CC1 [Example 2, 1-({3-[(1S,2S)-2-Hydroxycyclohexyl]-4-oxo-3,4-dihydrobenzo[h]quinazolin-6-yl}methyl)-4-pyridin-2-ylpiperidine-4-carbonitrile]	18
O=c1c2cc(CN3CCC(F)(c4ccccn4)CC3)c3ccccc3c2ncn1[C@H]1CCCC[C@@H]1O [Example 9, 6-[(4-Fluoro-4-pyridin-2-ylpiperidin-1-yl)methyl]-3-[(1S,2S)-2-hydroxycyclohexyl]benzo[h]quinazolin-4(3H)-one]	105
N#CC1(c2ccccn2)CCN(Cc2cc3c(=O)n([C@H]4CCOC[C@@H]4O)cnc3c3ccccc23)CC1 [Example 3]	31
Cc1ccnc(C2(C#N)CCN(Cc3cc4c(=O)n([C@H]5CCCC[C@@H]5O)cnc4c4ccncc34)CC2)c1 [Example 5, 1-({3-[(1S,2S)-2-Hydroxycyclohexyl]-4-oxo-3,4-dihydropyrido[3,4-h]quinazolin-6-yl}methyl)-4-(4-methylpyridin-2-yl)piperidine-4-carbonitrile]	21

— patent US8383638B2, “Aminobenzoquinazolinone M1 receptor positive allosteric modulators” (Merck Sharp & Dohme, priority 2009, dated 2013)
